Laboratory results reported in PMC10363532, “Xanthone synthetic derivatives with high anticandidal activity and positive mycostatic selectivity index values” (Scientific Reports, 2023).

Biological target: T1, yeast topoisomerase II (yTOPO II) (Saccharomyces cerevisiae, UniProt P06786)
T1 construct: gene TOP2; purified enzyme from the Inspiralis yeast topoisomerase II relaxation assay kit
T1 sequence (P06786 1-1428): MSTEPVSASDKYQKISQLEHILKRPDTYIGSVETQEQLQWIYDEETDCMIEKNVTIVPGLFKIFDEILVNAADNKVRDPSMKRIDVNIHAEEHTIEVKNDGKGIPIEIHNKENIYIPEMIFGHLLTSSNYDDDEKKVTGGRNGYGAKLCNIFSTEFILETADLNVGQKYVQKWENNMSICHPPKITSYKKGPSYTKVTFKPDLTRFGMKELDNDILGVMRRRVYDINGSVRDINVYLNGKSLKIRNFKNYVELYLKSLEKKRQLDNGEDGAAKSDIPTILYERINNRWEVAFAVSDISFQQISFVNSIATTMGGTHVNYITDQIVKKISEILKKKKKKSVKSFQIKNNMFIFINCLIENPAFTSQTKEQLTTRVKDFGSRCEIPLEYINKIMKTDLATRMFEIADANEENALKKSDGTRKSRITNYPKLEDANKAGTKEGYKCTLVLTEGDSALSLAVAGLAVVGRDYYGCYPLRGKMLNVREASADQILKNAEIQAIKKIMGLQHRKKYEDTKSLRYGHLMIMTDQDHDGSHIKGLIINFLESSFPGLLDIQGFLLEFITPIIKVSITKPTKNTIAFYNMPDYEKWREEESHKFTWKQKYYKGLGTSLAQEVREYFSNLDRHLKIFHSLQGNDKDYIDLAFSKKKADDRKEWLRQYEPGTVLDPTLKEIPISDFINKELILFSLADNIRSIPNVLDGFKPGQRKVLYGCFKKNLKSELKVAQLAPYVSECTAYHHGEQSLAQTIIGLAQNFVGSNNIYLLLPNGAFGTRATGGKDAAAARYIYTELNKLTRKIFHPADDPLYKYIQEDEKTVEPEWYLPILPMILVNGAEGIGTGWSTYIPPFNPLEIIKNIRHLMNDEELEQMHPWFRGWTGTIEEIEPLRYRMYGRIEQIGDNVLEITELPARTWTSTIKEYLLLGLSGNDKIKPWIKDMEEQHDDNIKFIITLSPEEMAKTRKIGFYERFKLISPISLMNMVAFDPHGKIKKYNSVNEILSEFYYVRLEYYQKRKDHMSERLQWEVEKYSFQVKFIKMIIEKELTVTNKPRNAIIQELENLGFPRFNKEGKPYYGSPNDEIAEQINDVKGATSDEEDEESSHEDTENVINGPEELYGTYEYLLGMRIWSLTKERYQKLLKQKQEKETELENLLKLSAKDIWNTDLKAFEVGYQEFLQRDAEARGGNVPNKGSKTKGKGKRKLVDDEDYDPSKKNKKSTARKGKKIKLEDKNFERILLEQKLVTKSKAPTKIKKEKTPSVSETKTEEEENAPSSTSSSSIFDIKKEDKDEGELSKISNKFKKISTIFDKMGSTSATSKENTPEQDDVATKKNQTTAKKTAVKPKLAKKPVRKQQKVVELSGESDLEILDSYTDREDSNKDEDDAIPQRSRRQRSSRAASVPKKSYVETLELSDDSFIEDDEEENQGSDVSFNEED
Assay: plasmid DNA relaxation assay, gel densitometry
Type: biochemical
Conditions: for Complete inhibition: supercoiled pBR322 as DNA substrate
Description: plasmid DNA relaxation assay, gel densitometry on yeast topoisomerase II (yTOPO II)

SMILES	IC50 [µM]	further results
O=c1c2cc3ccccc3cc2oc2c([N+](=O)[O-])ccc(NCCN3CCCC3)c12 [compound 9, 9]		Complete inhibition (highest concentration limited by solubility): > 50 µM
CCN(CC)CCn1nc2c3c(c([N+](=O)[O-])ccc31)Oc1cc3ccccc3cc1-2 [compound 13, 13]		Complete inhibition: > 150 µM
CN1CCN(CCCNc2ccc([N+](=O)[O-])c3oc4cc5ccccc5cc4c(=O)c23)CC1 [compound 42, 1-((3-(4-methylpiperazin-1-yl)propyl)amino)-4-nitro-12H-benzo[b]xanthen-12-one]	5.86 ± 1.07	
O=c1c2cc3ccccc3cc2oc2c([N+](=O)[O-])ccc(NCCN3CCOCC3)c12 [compound 44, 1-((2-morpholinoethyl)amino)-4-nitro-12H-benzo[b]xanthen-12-one]	5.36 ± 1.22	
